This note sets out measurements from US8242124B2, “Diketopiperidine derivatives as HIV attachment inhibitors” (priority 2008, dated 2012).

This assay concerns HIV-1 single-round infectious reporter virus. As to the kind of experiment: Single-round infectious HIV-1 reporter virus (luciferase) infection assay in HeLa CD4 cells. The settings on record: Human immunodeficiency virus 1, HeLa, 72 h.
The mark [1] stands for this setting: read-out: HIV_SC10PT (EC50, nM), group symbol.
[2] abbreviates: read-out: HIV_SC10PT (EC50, nM).

Like-named read-outs stand apart in the source and are kept apart here.

Protocol: 2. Compound was added in a 2 μl dimethylsulfoxide solution, so that the final assay concentration would be ≦10 μM.
3. 100 μl of single-round infectious reporter virus in Dulbecco's Modified Eagle Medium was then added to the plated cells and compound at an approximate multiplicity of infection (MOI) of 0.01, resulting in a final volume of 200 μl per well.
4. Virally-infected cells were incubated at 37 degrees Celsius, in a CO2 incubator, and harvested 72 h after infection.
5. Viral infection was monitored by measuring luciferase expression from viral DNA in the infected cells using a luciferase reporter gene assay kit, as described by the manufacturer (Roche Molecular Biochemicals, Indianapolis, Ind.). Infected cell supernatants were removed and 50 μl of lysis buffer was added per well. After 15 minutes, 50 μl of freshly-reconstituted luciferase assay reagent was added per well. Luciferase activity was then quantified by measuring luminescence using a Wallac MICROBETA® scintillation counter.
7. An EC50 provides a method for comparing the antiviral potency of the compounds of this disclosure. The effective concentration for fifty percent inhibition (EC50) was calculated with the Microsoft Excel Xlfit curve fitting software.

For the compound `COc1cnc(-n2cnc(C)n2)c2[nH]cc(C(=O)C(=O)N3CCc4c(cc(C#N)c(=O)n4-c4ccccc4)C3)c12` [Compound 25, 6-(2-(4-methoxy-7-(3-methyl-1H-1,2,4-triazol-1-yl)-1H-pyrrolo[2,3-c]pyridin-3-yl)-2-oxoacetyl)-2-oxo-1-phenyl-1,2,5,6,7,8-hexahydro-1,6-naphthyridine-3-carbonitrile], the 50% effective concentration (EC50) – broadly, the concentration that produces a half-maximal response – under setting [1] is less than 100 nM.
With `COc1cnc(-n2cnc(C(C)(F)F)n2)c2[nH]cc(C(=O)C(=O)N3CCc4c(cccc4-c4ccccn4)C3)c12` [Compound 17, 1-(7-(3-(1,1-difluoroethyl)-1H-1,2,4-triazol-1-yl)-4-methoxy-1H-pyrrolo[2,3-c]pyridin-3-yl)-2-(5-(pyridin-2-yl)-3,4-dihydroisoquinolin-2(1H)-yl)ethane-1,2-dione], the EC50 under setting [1] was less than 100 nM.
`COc1cnc(-n2cnc(C)n2)c2[nH]cc(C(=O)C(=O)N3CCc4c(cccc4-c4ccccc4)C3)c12` [Compound 1, 1-(4-methoxy-7-(3-methyl-1H-1,2,4-triazol-1-yl)-1H-pyrrolo[2,3-c]pyridin-3-yl)-2-(5-phenyl-3,4-dihydroisoquinolin-2(1H)-yl)ethane-1,2-dione]: the 50% effective concentration (EC50) under setting [2] turned out to be 0.02 nM.
Consider `COc1cnc(C(=O)NCCO)c2[nH]cc(C(=O)C(=O)N3CCc4c(cccc4-c4ccccn4)C3)c12` [Compound 6, N-(2-hydroxyethyl)-4-methoxy-3-(2-oxo-2-(5-(pyridin-2-yl)-3,4-dihydroisoquinolin-2(1H)-yl)acetyl)-1H-pyrrolo[2,3-c]pyridine-7-carboxamide], for which the EC50 under setting [1] is less than 100 nM.
For the compound `COc1cnc(Cl)c2[nH]cc(C(=O)C(=O)N3CCc4c(cccc4-c4ccccn4)C3)c12` [Compound 30, 1-(7-chloro-4-methoxy-1H-pyrrolo[2,3-c]pyridin-3-yl)-2-(5-(pyridin-2-yl)-3,4-dihydroisoquinolin-2(1H)-yl)ethane-1,2-dione], under setting [2], the EC50 worked out at 171 nM.
For the compound `COc1cnc(-c2cc(CO)[nH]n2)c2[nH]cc(C(=O)C(=O)N3CCc4c(ncnc4-c4ccccn4)C3)c12` [Compound 21, 1-(7-(5-(hydroxymethyl)-1H-pyrazol-3-yl)-4-methoxy-1H-pyrrolo[2,3-c]pyridin-3-yl)-2-(4-(pyridin-2-yl)-5,6-dihydropyrido[3,4-d]pyrimidin-7(8H)-yl)ethane-1,2-dione], the concentration giving a half-maximal response (EC50) under setting [1] was less than 100 nM.
Turning to `COc1cnc(-n2cnc(C)n2)c2[nH]cc(C(=O)C(=O)N3CCc4c(ccnc4-c4ccccn4)C3)c12` [Compound 26, 1-(4-methoxy-7-(3-methyl-1H-1,2,4-triazol-1-yl)-1H-pyrrolo[2,3-c]pyridin-3-yl)-2-(5-(pyridin-2-yl)-3,4-dihydro-2,6-naphthyridin-2(1H)-yl)ethane-1,2-dione], under setting [1], the EC50 was less than 100 nM.
As for `COc1cnc(-n2cnc(C)n2)c2[nH]cc(C(=O)C(=O)N3CCc4c(cccc4-c4ccccn4)C3)c12` [Compound 2, 1-(4-methoxy-7-(3-methyl-1H-1,2,4-triazol-1-yl)-1H-pyrrolo[2,3-c]pyridin-3-yl)-2-(5-(pyridin-2-yl)-3,4-dihydroisoquinolin-2(1H)-yl)ethane-1,2-dione], under setting [1], the concentration for a half-maximal effect (EC50) was less than 100 nM.
In the case of `COc1cnc(-n2cnc(C(C)O)n2)c2[nH]cc(C(=O)C(=O)N3CCc4c(ncnc4-c4ccccn4)C3)c12` (stereo not shown) [Compound 24, 1-(7-(3-(1-hydroxyethyl)-1H-1,2,4-triazol-1-yl)-4-methoxy-1H-pyrrolo[2,3-c]pyridin-3-yl)-2-(4-(pyridin-2-yl)-5,6-dihydropyrido[3,4-d]pyrimidin-7(8H)-yl)ethane-1,2-dione], under setting [1], the EC50 was less than 100 nM.
Regarding `COc1cnc(-n2cnc(C)n2)c2[nH]cc(C(=O)C(=O)N3CCc4c(ccnc4-c4ccccc4)C3)c12` [Compound 27, 1-(4-methoxy-7-(3-methyl-1H-1,2,4-triazol-1-yl)-1H-pyrrolo[2,3-c]pyridin-3-yl)-2-(5-phenyl-3,4-dihydro-2,6-naphthyridin-2(1H)-yl)ethane-1,2-dione], the EC50 under setting [1] is less than 100 nM.
Take `CNC(=O)c1ncc(OC)c2c(C(=O)C(=O)N3CCc4c(cccc4-c4ccccn4)C3)c[nH]c12` [Compound 5, 4-methoxy-N-methyl-3-(2-oxo-2-(5-(pyridin-2-yl)-3,4-dihydroisoquinolin-2(1H)-yl)acetyl)-1H-pyrrolo[2,3-c]pyridine-7-carboxamide]: the EC50 under setting [1] is less than 100 nM.
As for `COCc1ncn(-c2ncc(OC)c3c(C(=O)C(=O)N4CCc5c(cccc5-c5ccccn5)C4)c[nH]c23)n1` [Compound 14, 1-(4-methoxy-7-(3-(methoxymethyl)-1H-1,2,4-triazol-1-yl)-1H-pyrrolo[2,3-c]pyridin-3-yl)-2-(5-(pyridin-2-yl)-3,4-dihydroisoquinolin-2(1H)-yl)ethane-1,2-dione], the EC50 under setting [1] was less than 100 nM.
As to `COc1cnc(-n2cnc(CO)n2)c2[nH]cc(C(=O)C(=O)N3CCc4c(ncnc4-c4ccccn4)C3)c12` [Compound 23, 1-(7-(3-(hydroxymethyl)-1H-1,2,4-triazol-1-yl)-4-methoxy-1H-pyrrolo[2,3-c]pyridin-3-yl)-2-(4-(pyridin-2-yl)-5,6-dihydropyrido[3,4-d]pyrimidin-7(8H)-yl)ethane-1,2-dione], the EC50 under setting [1] was less than 100 nM.
Consider `COCc1ncnn1-c1ncc(OC)c2c(C(=O)C(=O)N3CCc4c(cccc4-c4ccccn4)C3)c[nH]c12` [Compound 13, 1-(4-methoxy-7-(5-(methoxymethyl)-1H-1,2,4-triazol-1-yl)-1H-pyrrolo[2,3-c]pyridin-3-yl)-2-(5-(pyridin-2-yl)-3,4-dihydroisoquinolin-2(1H)-yl)ethane-1,2-dione], for which the EC50 under setting [1] is less than 100 nM.
As for `COc1cnc(-n2cnc(C(F)(F)F)n2)c2[nH]cc(C(=O)C(=O)N3CCc4c(cccc4-c4ccccn4)C3)c12` [Compound 12, 1-(4-methoxy-7-(3-(trifluoromethyl)-1H-1,2,4-triazol-1-yl)-1H-pyrrolo[2,3-c]pyridin-3-yl)-2-(5-(pyridin-2-yl)-3,4-dihydroisoquinolin-2(1H)-yl)ethane-1,2-dione], under setting [1], the EC50 is less than 100 nM.
With `COc1cnc(-c2cc(C(=O)N(C)C)[nH]n2)c2[nH]cc(C(=O)C(=O)N3CCc4c(cccc4-c4ccccn4)C3)c12` [Compound 8, 3-(4-methoxy-3-(2-oxo-2-(5-(pyridin-2-yl)-3,4-dihydroisoquinolin-2(1H)-yl)acetyl)-1H-pyrrolo[2,3-c]pyridin-7-yl)-N,N-dimethyl-1H-pyrazole-5-carboxamide], the EC50 under setting [1] was less than 100 nM.
Same read-out and setting: the same measure for `COc1cnc(-n2cncn2)c2[nH]cc(C(=O)C(=O)N3CCc4c(cccc4-c4ccccn4)C3)c12` [Compound 11, 1-(4-methoxy-7-(1H-1,2,4-triazol-1-yl)-1H-pyrrolo[2,3-c]pyridin-3-yl)-2-(5-(pyridin-2-yl)-3,4-dihydroisoquinolin-2(1H)-yl)ethane-1,2-dione]: less than 100 nM.
Regarding `COc1cnc(-n2ccc(C(F)(F)F)n2)c2[nH]cc(C(=O)C(=O)N3CCc4c(cccc4-c4ccccn4)C3)c12` [Compound 10, 1-(4-methoxy-7-(3-(trifluoromethyl)-1H-pyrazol-1-yl)-1H-pyrrolo[2,3-c]pyridin-3-yl)-2-(5-(pyridin-2-yl)-3,4-dihydroisoquinolin-2(1H)-yl)ethane-1,2-dione], under setting [1], the half-maximal effective concentration (EC50) was less than 100 nM.
As to `COc1cnc(-c2cc(C(=O)NCCO)[nH]n2)c2[nH]cc(C(=O)C(=O)N3CCc4c(cccc4-c4ccccn4)C3)c12` [Compound 9, N-(2-hydroxyethyl)-3-(4-methoxy-3-(2-oxo-2-(5-(pyridin-2-yl)-3,4-dihydroisoquinolin-2(1H)-yl)acetyl)-1H-pyrrolo[2,3-c]pyridin-7-yl)-1H-pyrazole-5-carboxamide], the EC50 under setting [2] stood at 0.17 nM.
For `COc1cnc(-c2cc(CO)[nH]n2)c2[nH]cc(C(=O)C(=O)N3CCc4c(cccc4-c4ccccn4)C3)c12` [Compound 29, 1-(7-(5-(hydroxymethyl)-1H-pyrazol-3-yl)-4-methoxy-1H-pyrrolo[2,3-c]pyridin-3-yl)-2-(5-(pyridin-2-yl)-3,4-dihydroisoquinolin-2(1H)-yl)ethane-1,2-dione], the 50% effective concentration (EC50) under setting [1] is less than 100 nM.
On the same count and under the same terms, the result for `COc1cnc(-c2cc(C(=O)O)[nH]n2)c2[nH]cc(C(=O)C(=O)N3CCc4c(cccc4-c4ccccn4)C3)c12` [Compound 7, 3-(4-methoxy-3-(2-oxo-2-(5-(pyridin-2-yl)-3,4-dihydroisoquinolin-2(1H)-yl)acetyl)-1H-pyrrolo[2,3-c]pyridin-7-yl)-1H-pyrazole-5-carboxylic acid] reads less than 100 nM; that for `COc1cnc(-n2cnc(C)n2)c2[nH]cc(C(=O)C(=O)N3CCc4c(-c5ccccn5)cccc4C3O)c12` (stereo not shown) [Compound 28, 1-(1-hydroxy-5-(pyridin-2-yl)-3,4-dihydroisoquinolin-2(1H)-yl)-2-(4-methoxy-7-(3-methyl-1H-1,2,4-triazol-1-yl)-1H-pyrrolo[2,3-c]pyridin-3-yl)ethane-1,2-dione], less than 100 nM.
On the same count and under the same terms, the same measure for `COc1cnc(-n2ccnn2)c2[nH]cc(C(=O)C(=O)N3CCc4c(ncnc4-c4ccccn4)C3)c12` [Compound 19, 1-(4-methoxy-7-(1H-1,2,3-triazol-1-yl)-1H-pyrrolo[2,3-c]pyridin-3-yl)-2-(4-(pyridin-2-yl)-5,6-dihydropyrido[3,4-d]pyrimidin-7(8H)-yl)ethane-1,2-dione]: less than 100 nM; for `CNC(=O)c1cc(-c2ncc(OC)c3c(C(=O)C(=O)N4CCc5c(cccc5-c5ccccn5)C4)c[nH]c23)n[nH]1` [Compound 4, 3-(4-methoxy-3-(2-oxo-2-(5-(pyridin-2-yl)-3,4-dihydroisoquinolin-2(1H)-yl)acetyl)-1H-pyrrolo[2,3-c]pyridin-7-yl)-N-methyl-1H-pyrazole-5-carboxamide]: less than 100 nM; for `COc1cnc(-c2cc(C(C)(C)O)[nH]n2)c2[nH]cc(C(=O)C(=O)N3CCc4c(ncnc4-c4ccccn4)C3)c12` [Compound 22, 1-(7-(5-(2-hydroxypropan-2-yl)-1H-pyrazol-3-yl)-4-methoxy-1H-pyrrolo[2,3-c]pyridin-3-yl)-2-(4-(pyridin-2-yl)-5,6-dihydropyrido[3,4-d]pyrimidin-7(8H)-yl)ethane-1,2-dione]: less than 100 nM.
